The values that follow come from article PMC3513558 (European journal of medicinal chemistry, 2012).

Molecules are shown by their SMILES. Entries after “also recorded” stand apart in the source; their conditions may differ.

In the test the target is intracellular HCV NS5B RdRp activity in BHK-NS5B-FRLuc reporter cells (Hepatitis C virus genotype 1b, UniProt P26663). Description: BHK-NS5B-FRLuc reporter assay, intracellular NS5B RdRp activity. The format is cell-based. The settings on record: 100 µM, 42 hours, RLuc/FLuc vs DMSO. (In general: A reporter such as luciferase makes a cellular process visible.)
Sequence of intracellular HCV NS5B RdRp activity in BHK-NS5B-FRLuc reporter cells (P26663 2420-3010): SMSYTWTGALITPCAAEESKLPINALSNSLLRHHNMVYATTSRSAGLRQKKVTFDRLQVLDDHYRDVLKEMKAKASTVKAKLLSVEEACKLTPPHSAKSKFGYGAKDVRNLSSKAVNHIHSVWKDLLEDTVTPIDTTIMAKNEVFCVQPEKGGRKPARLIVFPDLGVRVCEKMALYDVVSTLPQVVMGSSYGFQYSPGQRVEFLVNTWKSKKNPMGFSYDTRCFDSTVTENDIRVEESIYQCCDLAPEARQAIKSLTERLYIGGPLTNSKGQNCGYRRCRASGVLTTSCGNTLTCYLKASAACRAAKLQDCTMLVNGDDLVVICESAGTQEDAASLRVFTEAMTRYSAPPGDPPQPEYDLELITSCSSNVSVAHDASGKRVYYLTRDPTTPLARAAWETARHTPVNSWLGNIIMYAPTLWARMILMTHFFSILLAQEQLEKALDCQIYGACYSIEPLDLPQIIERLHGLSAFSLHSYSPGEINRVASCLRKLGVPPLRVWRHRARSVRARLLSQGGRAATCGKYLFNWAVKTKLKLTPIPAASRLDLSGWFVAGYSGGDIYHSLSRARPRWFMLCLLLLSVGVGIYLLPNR

Consider `Cc1cc(O)c(C(c2ccc(Cl)c(Cl)c2)c2c(O)cc(C)oc2=O)c(=O)o1` [Compound 8, 3,3'-[(3,4-Dichlorophenyl)methylene]bis(4-hydroxy-6-methyl-2H-pyran-2-one)], for which the “% Inhibition of intracellular NS5B RdRp activity” value is given as “did not inhibit; also recorded: No inhibition”.
